# Measurements as given in US20240207241A1, “Method for Promoting Functional Cure of AIDS by Reducing HIV Reservoir with Lenalidomide” (priority 2022, published 2024).
# How the values were obtained:
# latent HIV cell line U1 = assay: P24 ELISA in supernatant of U1 cells stimulated with latent activator; format: cell-based; details: pretreated 1, 2, and 5 μmol/L lenalidomide 24 hrs
# Experimental: U1 cells were pretreated with various concentrations of lenalidomide (1, 2, and 5 μmol/L) for 24 hrs, and then the U1 cells pre-treated with lenalidomide were stimulated with a latent activator (TNF-a, PMA, or LPS). The U1 cells in the negative control group were cultured alone, and the U1 cells in the positive control group were not pretreated with lenalidomide. The activation of P24 protein in the supernatant of latent cells U1 was detected by ELISA. […] Compared with the positive control group, the P24 contents decline in the supernatants of the three experimental groups pretreated with 1, 2, and 5 μmol/L lenalidomide, and the difference is statistically significant (P=0.0029, 0.0019, and 0.0017, B in FIG. 3). The difference between various concentrations of lenalidomide groups is not obvious. (2) In the experiment where TNF-α of 20 μg/ml is used as the latent activator, similar results are observed. […] (3) The study of endotoxin (LPS, 10 μg/ml) as a latent activator is rare.
# [1] = Clinical cohort: inflammatory markers and cytokines in peripheral blood and CSF of HIV patients on lenalidomide; format: in vivo, human
# Experimental: HIV patients with CM after antiretroviral therapy (ART) were recruited. […] Lenalidomide (25 mg) was orally administered at days 1 to 21 in a 28-day cycle, and ART was continued for 48 weeks. The participants were followed up at 7 points (base line 0w, 4w, 8w, 12w, 24w, 36w, and 48w). Inflammatory cytokines in CSF and peripheral blood were detected at each follow-up point, and PBMCs were extracted from the patients and detected for indicators of HIV reservoir.
# J-lat10.6 cells = assay: GFP activation of J-lat10.6 cells by supernatant of PBMCs treated with lenalidomide; format: cell-based; details: supernatant added with lenalidomide; control supernatant activates GFP by 51.7%
# Excerpt: (§1) Lenalidomide has a powerful immunomodulatory effect, and can inhibit the release of pro-inflammatory cytokines in PBMCs derived from HIV patients in vitro and promote the secretion of anti-inflammatory cytokine IL-10. However, whether this degree of immunomodulation can inhibit HIV replication was not confirmed. The latent cell lines J-lat10.6 and C11 cells were used for the experiment. The supernatants of the experimental group and control group were used to stimulate J-lat10.6 and C11 cells, respectively. […] Lenalidomide can regulate the release of inflammatory cytokines in PBMCs from HIV-1 patients in vitro, and this bypass pathway can inhibit virus reactivation in HIV-1 latent cell lines.
# U1 cells = assay: CCK8 survival rate of U1 cells; format: cell-based; details: lenalidomide 0.5, 1, 2, 5, 10, and 20 μmol/L, 24 hrs
# Experimental: CCK8 was used to evaluate the safety of lenalidomide when U1 cells were treated with it in vitro. After U1 cells were treated with various concentrations of lenalidomide (0.5, 1, 2, 5, 10, and 20 μmol/L) for 24 hrs, the survival rate of U1 cells was detected by CCK8 kit. […] There is no significant difference between the control group and various concentration groups and between the various concentration groups. Lenalidomide has a high safety when acting on latent cell lines in vitro.
# [2] = tested on: HIV-1 primary cell CD8-PBMCs; assay: Virus reactivation in HIV-1 primary cells CD8-PBMCs (intracellular P24 by flow cytometry, CA HIV RNA by RT-PCR); format: cell-based, human
# Experimental: Lenalidomide is confirmed to inhibit the transcription of virus in HIV-1 latent cell line, and whether it has the same effect in HIV primary cells is unknown. CD8-PBMCs were divided into an experimental group and a positive control group and treated with or without lenalidomide for 5 days. Both groups were supplemented with LPS irregularly. In the negative control group, the same amount of DMSO was added for control culture throughout the whole process. After 5 days, the cells were broken, and the difference in expression of intracellular P24 protein in CD8-PBMCs was detected by flow cytometry. As shown in A in FIG. 5, in the positive control group, the intracellular HIV-1 core P24 in CD8-PBMCs reaches 9.76% after the continuous action of activator. […] The differences in the expression of CA HIV RNA in the five samples were also detected.
# C11 cells = assay: GFP activation of C11 cells by supernatant of PBMCs treated with lenalidomide; format: cell-based; details: supernatant of lenalidomide group; control group 23.17%
# Excerpt: as §1
# [3] = tested on: PBMCs derived from HIV-1 patients; assay: Cytokines in supernatant of PBMCs from HIV-1 patients (cytometric bead array); format: cell-based, human; details: PBMCs co-cultured with lenalidomide 24 hrs vs control group
# Experimental: The in-vitro regulatory effect of lenalidomide was verified as follows. PBMCs were separated from peripheral blood donated by HIV-1 patients, and divided into a control group and an experimental group. The control group was cultured alone, and the experimental group was co-cultured with lenalidomide. After 24 hrs, the supernatant was taken for cytokine detection. The level of cytokines in the supernatant was measured by a cytometric bead array kit.
# HIV reservoir = assay: Clinical cohort: indicators of HIV reservoir (CA HIV RNA) in PBMCs extracted from patients; format: in vivo, human
# Experimental: HIV patients with CM after antiretroviral therapy (ART) were recruited. These participants had central damage after receiving standard anti-fungal therapy, elevated cerebrospinal fluid (CSF) protein level, age of 18 years or more, and plasma HIV RNA of <50 copies/ml and CD4 T cell count of >100 cells/mm3 after receiving ART for at least 48 weeks. Lenalidomide (25 mg) was orally administered at days 1 to 21 in a 28-day cycle, and ART was continued for 48 weeks. The participants were followed up at 7 points (base line 0w, 4w, 8w, 12w, 24w, 36w, and 48w). Inflammatory cytokines in CSF and peripheral blood were detected at each follow-up point, and PBMCs were extracted from the patients and detected for indicators of HIV reservoir. […] For CA HIV-RNA, lenalidomide has a great influence. […] The subjects Nos. 110 and 113 have a decline that exceeds 2 log order of magnitude.
# [4] = tested on: HIV-1 latent cell line U1; assay: Viral mRNA expression in U1 cells activated with LPS; format: cell-based; details: lenalidomide 2 μmol/L pretreatment 24 hrs
# Experimental: After the HIV-1 latent cell line is activated by activator, the expression of viral mRNA in the cells is increased, causing the production of virions. […] The U1 cells were divided into three groups. The negative control group was added with the same amount of culture medium. In the positive control group, cells were pretreated with the culture medium, and LPS was added as an activator after 24 hrs. In the experimental group, lenalidomide (2 μmol/L) was added to pretreat the cells for 24 hrs and then LPS was added to activate the cells. […] (2) The expression levels of multi-spliced RNA, single-spliced RNA and non-spliced RNA in U1 were also detected.
# [5] = peripheral blood, after lenalidomide treatment
smiles,measurement,setting,value
Nc1cccc2c1CN(C1CCC(=O)NC1=O)C2=O (stereo not drawn) [lenalidomide],P24 content in supernatant vs positive control group,latent HIV cell line U1; LPS 10 μg/ml,significantly lower
same,P24 content in supernatant vs positive control group,latent HIV cell line U1; PMA 20 nmol/L 24 hrs,decline
same,P24 content in supernatant vs positive control group,latent HIV cell line U1; TNF-α 20 μg/ml,significantly lower
same,IL-6 level in CSF,[1]; CSF,significantly reduces
same,TNF-a level in CSF,[1]; CSF,significantly reduces
same,IL-6,[1]; [5],decrease significantly
same,TNF-a,[1]; [5],decrease significantly
same,CRP of HIV subjects,"[1]; peripheral blood, lenalidomide 25 mg oral days 1 to 21 of 28-day cycle, after 7 weeks",decrease
same,D-dimer of HIV subjects,"[1]; peripheral blood, lenalidomide 25 mg oral days 1 to 21 of 28-day cycle, after 12 weeks",decrease
same,J-lat10.6 GFP,J-lat10.6 cells,24.21%
same,survival rate of U1 cells,U1 cells,less affected
same,expression of intracellular antigen P24,"[2]; 5 days with lenalidomide and LPS, positive control 9.76%, DMSO control 0.73%",4.15%
same,decrease of average amount of CA HIV-1 RNA vs positive control group,"[2]; five samples, RT-PCR",0.49 time
same,GFP activation of C11 cells,C11 cells,8.09%
same,IL-6 in supernatant,[3],decrease significantly
same,IL-10 in supernatant,[3],increases significantly
same,TNF-α in supernatant,[3],decrease significantly
same,CA HIV-RNA,"HIV reservoir; 13 patients, from the 24th week, more obvious at the 48th week",declines obviously
same,decline of CA RNA,HIV reservoir; subjects Nos. 110 and 113,exceeds 2 log order of magnitude
same,expression level of multi-spliced RNA,[4]; then LPS,significantly inhibits
same,expression level of non-spliced RNA,[4]; then LPS,significantly inhibits
same,expression level of single-spliced RNA,[4]; then LPS,significantly inhibits
same,mRNA level of Gag,[4]; then LPS 10 μg/ml 24 hrs,basically inhibited
same,mRNA level of Rev protein,[4]; then LPS 10 μg/ml 24 hrs,basically inhibited
